“And” between values parts separate entries of the source, which are not always exact repeats. Identical values can stand only once. Bridge positions count the residues as written; N and C are the ends. Square brackets hold non-standard residues; d marks the D form. Peptide text beside a SMILES is read from it. ξ: configuration not given here. d2Nal = N[C@H](Cc1ccc2ccccc2c1)C(=O)O; Thr(3ξ) = CC(O)[C@H](N)C(=O)O
Columns and labels:
[1] = Self-assembly study: putting peptides in solution in water, macroscopic, ATR-FTIR, TEM and SAXS analysis; type: physicochemical; conditions: 3 to 15% by mass of peptide in water; form and diameter of the self-assembled structure, or soluble / insoluble
Description: The procedure used comprises three stages: putting the peptides in solution and macroscopic analysis; spectroscopic and microscopic analyses of the structures formed and by small-angle X-ray scattering (SAXS) analyses.
The first stage of the characterization of the derivatives is the production of a range of concentrations from 3 to 15% by mass of peptide in water. Gelling of the solution indicates the presence of self-assembled structures which can be nanotubes but can also be fibres or other self-organised structures.
The object of this stage is to verify the presence of self-assembled structures, to characterize their self-assembly and to visualize them by microscopy.
Infrared spectroscopy makes it possible to obtain information on the method of stacking the peptides in the self-assemblies. The amide band spectrum, reflecting the absorption spectra of the carbonyl functions of the peptide backbone, gives information on the type of hydrogen bond in which these groups are involved (H bonds leading to the formation of the […], a helix or also a loop or random conformation) and consequently on the secondary and tertiary structure of the peptides in solution and self-assembled. The attenuated total reflection technique (ATR-FTIR) uses a crystal on which the solid or liquid sample is deposited. The infrared light is guided through this crystal at an angle which allows it to be reflected several times inside the crystal, which increases the sensitivity of the technique. Due to the performance of this device, it is then possible perform measurements on relatively dilute solutions. The beam penetrates a few microns into the sample deposited on the crystal, which means that only the molecules/structures which are deposited on the surface of the crystal are analyzed. Moreover, this technique is non-destructive.
The assembled structures are then visualized by transmission electron microscopy (TEM). This very powerful technique, allowing magnifications greater than 500,000 times, is one of the few techniques capable of visualizing structures on the nanometric scale. The sample is subjected to an electron beam. The visualization of the transmitted beam is produced either by a photoluminescent screen, or by a CCD camera. The sample in the microscope being under vacuum, it is samples dried after staining with uranyl salts in order to increase contrast which are observed.
The peptide in solution is firstly deposited on a copper grid covered with a film of carbon. After deposition of the materiel, the excess liquid is eliminated. In the same way, the solution of colorant, in our case uranyl acetate, is deposited on the grid, the excess is eliminated and the grid is dried in the open air. It can then be introduced into the microscope.
The samples, liquids or gels, are introduced into a capillary column and subjected to a monochromatic flow of X-rays. The intensity diffused is measured as a function of the scattering angle with respect to the incident angle.
The diffusion patterns thus obtained must be the subject of a correlation with a close theoretical model of the structures present in the sample. In the case where the peptides have self-assembled in the form of hollow nanotubes, the modelling of the experimental data with the theoretical diffusion produced by infinitely long hollow columns makes it possible to determine with precision the diameter of the columns and to estimate their wall thickness (Valery et al. in Biophysical journal, 2004, 86(4), 2484-2501 and Proc. Natl. Acad. Sci., 2003, 100(18) 10258-10262). For polydisperse, nanotubular, fibrilar, micellar or lamellar self-assemblies, it is the correlation of the spectroscopic, microscopic and XR scattering data which makes it possible to estimate a size range for the objects observed.

[2] = Dynamic release test in PBS; type: physicochemical; conditions: PBS pH 7.4, 37° C., % of free compound
Procedure: Release studies can be carried out on the octapeptide compounds according to the invention in the form of gel, solid, or in suspension. Two types of tests can be envisaged: static release tests and/or dynamic tests, both are briefly described hereafter.
The experimental parameters are common to both types of tests. The release medium is a liquid medium which is physico-chemically well-controlled, preferably a PBS (phosphate buffer saline) buffer adjusted to pH 7.4 and maintained at 37° C. The release curve is defined as the concentration of the studied compound in the dissolution medium (expressed in % of free compound) as a function of time (minutes, hours, days). To initiate the tests, a know quantity of sample is placed in the dissolution medium at time 0 (t=0 min/h/d), the sample being optionally conditioned in a device which is suited to its initial physical state (gel, solid, suspension). Measurements of the concentration of the compound in the release medium are carried out by one or more analytical methods which are well known in the state of the art such as UV-visible spectrophotometry or the HPLC (High Performance Liquid Chromatography). The parameters of the analytical methods are adjusted as a function of the physico-chemical characteristics of the compounds. The tests can be carried out with various starting concentrations such as 75 mM and 226 mM in the examples presented hereafter.
For the dynamic release studies, controlled stirring or a release medium flow is applied to the samples. In this mode, the samplings and/or concentration determinations are generally automated and the studies can be carried out in systems / instruments which are standardized and well known in the state of the art (cf. European Pharmacopeia systems). For example, certain studies in dynamic mode can be carried out on samples corresponding to the order of 10 mg of pure compound placed in 100 mL of PBS introduced beforehand into standardized beakers and maintained at 37° C. The stirring and samplings / measurements are controlled by a dissolution testing instrument of device type 1 or 2 described by the European Pharmacopeia.

Dynamic release after 44 h ([2]; 75 mM starting concentration) [%] | Dynamic release after 44 h ([2]; 226 mM starting concentration) [%] | SMILES | Assembly [1]
100 | 93 | CC(C)[C@@H]1NC(=O)[C@H](CCCCN)NC(=O)[C@@H](Cc2c[nH]cn2)NC(=O)[C@H](Cc2ccc(O)cc2)NC(=O)[C@@H](NC(=O)[C@H](N)Cc2ccc3ccccc3c2)CSSC[C@@H](C(=O)N[C@H](C(N)=O)C(C)O)NC1=O (stereo partly drawn) [Example 3, H-D-2-Nal^1-cyclo(Cys^2-Tyr^3-D-His^4-Lys^5-Val^6-Cys^7)-Thr^8-NH2.2 CH3COOH] (H-[d2Nal]CY[dH]KVC[Thr(3ξ)]-NH2; disulfide 2-7) | monodisperse peptide nanotubes and 9.3 nm monodisperse nanotube
94 | 75 | CC(C)[C@@H]1NC(=O)[C@H](CCCCN)NC(=O)[C@@H](C)NC(=O)[C@H](Cc2ccc(O)cc2)NC(=O)[C@@H](NC(=O)[C@H](N)Cc2ccc3ccccc3c2)CSSC[C@@H](C(=O)N[C@H](C(N)=O)C(C)O)NC1=O (stereo partly drawn) [Example 4, H-D-2-Nal^1-cyclo(Cys^2Tyr^3-D-Ala^4-Lys^5-Val^6Cys^7)-Thr^8-NH2.2 CH3COOH] (H-[d2Nal]CY[dA]KVC[Thr(3ξ)]-NH2; disulfide 2-7) | self-assembled fibres
37 | 17 | CC(C)[C@@H]1NC(=O)[C@H](CCCCN)NC(=O)[C@@H](Cc2cccc3ccccc23)NC(=O)[C@H](Cc2ccc(O)cc2)NC(=O)[C@@H](NC(=O)[C@H](N)Cc2ccc3ccccc3c2)CSSC[C@@H](C(=O)N[C@H](C(N)=O)C(C)O)NC1=O (stereo partly drawn) [Example 6, H-D-2-Nal^1-cyclo(Cys^2Tyr^3-13-(1-naphthyl)-D-Ala^4-Lys^5-Val^6-Cys^7)-Thr^8-NH2.2 CH3COOH] | monodisperse peptide nanotubes and 35 nm monodisperse nanotube
